Results reported in BigSolDB 2.1.

Cc1cc(O)c2c(c1)C(=O)c1cc(O)cc(O)c1C2=O
solubility (mole fraction) (in ethanol, 283.15 K): 8.37e-05
solubility (mole fraction) (in ethanol, 288.15 K): 9.39e-05
solubility (mole fraction) (in ethanol, 293.15 K): 0.000112
solubility (mole fraction) (in ethanol, 298.15 K): 0.000132
solubility (mole fraction) (in ethanol, 303.15 K): 0.00015
solubility (mole fraction) (in ethanol, 308.15 K): 0.00017
solubility (mole fraction) (in ethanol, 313.15 K): 0.000203
solubility (mole fraction) (in ethanol, 318.15 K): 0.000231
solubility (mole fraction) (in ethanol, 323.15 K): 0.000268
solubility (mole fraction) (in water, 283.15 K): 3.2e-08
solubility (mole fraction) (in water, 288.15 K): 4.6e-08
solubility (mole fraction) (in water, 293.15 K): 6e-08
solubility (mole fraction) (in water, 298.15 K): 8.2e-08
solubility (mole fraction) (in water, 303.15 K): 1e-07
solubility (mole fraction) (in water, 308.15 K): 1.32e-07
solubility (mole fraction) (in water, 313.15 K): 1.79e-07
solubility (mole fraction) (in water, 318.15 K): 2.15e-07
solubility (mole fraction) (in water, 323.15 K): 2.79e-07

O=C1c2cccc(O)c2C(=O)c2c(O)cc(CO)cc21
solubility (mole fraction) (in ethanol, 283.15 K): 2.21e-05
solubility (mole fraction) (in ethanol, 288.15 K): 2.58e-05
solubility (mole fraction) (in ethanol, 293.15 K): 3.15e-05
solubility (mole fraction) (in ethanol, 298.15 K): 3.83e-05
solubility (mole fraction) (in ethanol, 303.15 K): 4.45e-05
solubility (mole fraction) (in ethanol, 308.15 K): 5.2e-05
solubility (mole fraction) (in ethanol, 313.15 K): 6.32e-05
solubility (mole fraction) (in ethanol, 318.15 K): 7.71e-05
solubility (mole fraction) (in ethanol, 323.15 K): 9e-05
solubility (mole fraction) (in water, 283.15 K): 3.32e-07
solubility (mole fraction) (in water, 288.15 K): 4.51e-07
solubility (mole fraction) (in water, 293.15 K): 5.84e-07
solubility (mole fraction) (in water, 298.15 K): 8.17e-07
solubility (mole fraction) (in water, 303.15 K): 1.15e-06
solubility (mole fraction) (in water, 308.15 K): 1.58e-06
solubility (mole fraction) (in water, 313.15 K): 2.1e-06
solubility (mole fraction) (in water, 318.15 K): 2.72e-06
solubility (mole fraction) (in water, 323.15 K): 3.9e-06
